Patent US20110065595A1, “Method and Test Kit for the Rapid Identification and Characterization of Cells” (priority 2007, published 2011)

System: strain B of Bacillus cereus (β-lactamase SF-marker)
Assay: Sensitivity profile of B. cereus in soil suspension using inducible β-lactamase as SF-marker (iodometric starch-iodine decolorization)
Type: cell-based
Settings: for effect on activity / synthesis of the SF marker (β-lactamase) / sensitivity or resistance of strain B to the antibiotic: judged from decolorization time; for Decolorization time: soil suspension in nutrient broth with 1.0 mcg cloxacillin inducer, 10 min at 30° C., then Assay Reagent with phenoxymethylpenicillin, control without addition 47 seconds, activity inversely proportional to time; for inhibition of the enzymatic reaction / remaining part of the enzymatic reaction: compared with control sample; for increase of time needed for decolorization versus control: compared with control sample (47 seconds)
Description: Reagents • Nutrient broth and Nutrient Agar were purchased from Difco (cat. No. #233000 and #211665, respectively). • Mueller Hinton agar—purchased from Difco (cat. No. 225250). • Assay Reagent solution—50 mM potassium iodide and 10 mM iodine in 0.75% aqueous starch solution • L-alanine—was used for spore germination (purchased from Fluka, cat no. 29236).
BBL antibiotic sensitivity testing disks were used for sensitivity profiling were placed in respective test tubes:
Preparation of anti-penicillinase antibodies was previously described by the present inventor [Citri, N; et al. Nature 190 (478):1010-1011 (1961)]. Briefly neutralizing antiserum was prepared by immunizing rabbits with a highly purified preparation of exopenicillinase produced by strain 569/H of B. cereus. Twenty mg of the enzyme were administered with Freund's adjuvant in three intramuscular injections at ten-day intervals.
In order to perform a combined characterization of bacteria identification and antibiotic sensitivity profiling, the inventor used a strain of Bacillus cereus expressing the characterizing enzyme β-lactamase (penicillinase) that is used herein as a structural-functional marker (SF-marker).
A colony of strain B of Bacillus cereus was dispersed in 0.5 gm of garden soil suspended in 3 ml of distilled water. Samples of the suspension, 0.3 ml each, were placed in 5 test, tubes, each containing 0.5 ml nutrient broth [double strength] spiked with 1.0 mcg cloxacillin, and each supplemented as listed in Table 1 below. After 10 min. at 30° C. the test was initiated by the addition to each test tube of 0.1 ml of the Assay Reagent solution containing the substrate, phenoxymethylpenicillin [10 mg/mL]. The time required for complete decolorization of the starch-iodine complex by the product of the catalytic reaction was recorded as shown in Table 1.

Compound | effect on activity / synthesis of the SF marker (β-lactamase) | sensitivity or resistance of strain B to the antibiotic | Decolorization time [s] | inhibition of the enzymatic reaction | remaining part of the enzymatic reaction | increase of time needed for decolorization versus control
Gentamicin | no effect | resistant | 48 |  |  | 
C[C@H]1c2cccc(O)c2C(=O)C2=C(O)[C@]3(O)C(=O)C(C(N)=O)=C(O)[C@@H](N(C)C)[C@@H]3[C@@H](O)[C@@H]21 [Doxycyclin, Doxycycline] | inhibited | sensitive | 815 | about 99% | about 0.12% | about 17.3 folds
CC[C@H]1OC(=O)[C@H](C)[C@@H](O[C@H]2C[C@@](C)(OC)[C@@H](O)[C@H](C)O2)[C@H](C)[C@@H](O[C@@H]2O[C@H](C)C[C@H](N(C)C)[C@H]2O)[C@](C)(O)C[C@@H](C)C(=O)[C@H](C)[C@@H](O)[C@]1(C)O [Erythromycin] | inhibited | sensitive | >850 | about 99% | about 0.12% | ~18 folds
